# Measurements reported in patent EP2022493A1, “Composition comprising at least one optically active phthalamide derivative for controlling animal parasites” (Bayer CropScience AG, priority 2007, dated 2009).
# What was measured:
# Musca domestica = Musca domestica - test; assay type: in vivo; conditions: application rate of 100ppm, adults
# Procedure: (§1) Solvent: dimethyl sulfoxide
# (§2) To produce a suitable preparation of active compound, 10 mg of active compound are dissolved in 0.5 ml solvent, and the concentrate is diluted with water to the desired concentration.
# Prior to the assay, a piece or kitchen sponge is soaked with a mixture of sugar and compound solution and placed into a container. 10 adults (Musca domestica) are placed into the container and closed with a perforated lid.
# After the specified period of time, mortality in % is determined. 100 % means that all the flies have been killed; 0 % means that none of the flies have been killed.
# Lucilia cuprina larvae = assay: Lucilia cuprina - test (larvae); assay type: in vivo; conditions: in Ovis aries, read-out: activity (mortality in %)
# Procedure: as §1, §2
# Approximately 20 -30 (Lucilia cuprina larvae) are transferred into a test tube containing 1cm^3 of minced horse meat and 0.5 ml aqueous dilution of test compound.
# After the specified period of time, mortality in % is determined. 100 % means that all the larvae have been killed; 0 % means that none of the larvae have been killed.
# Boophilus microplus = Boophilus microplus - test (injection into adult ticks); assay type: in vivo; conditions: application rate of 20 µg/animal; injected into the abdomen of adult ticks; seven days
# Procedure: Boophilus microplus - test Solvent: dimethylsulfoxide To produce a suitable preparation of active compound, 1 part by weight of active compound is mixed with the stated amount of solvent, and the concentrate is diluted with containing solvent to the desired concentration. Adult ticks (Boophilus microplus) are treated by injected with compound solution of the desired concentration into the abdomen. Ticks are transferred into replica plates and incubated in a climate chamber for seven days. Eggs which are not clearly fertile or infertile are further incubated for another 35 days until larvae hatch from the untreated controls. After the specified period of time, the laying of fertile eggs in % is determined. 100 % means that all eggs have been fertile; 0 % means that none of the eggs have been fertile.
# [1] = Determination of the logP values by HPLC on reversed-phase column (C 18); assay type: physicochemical
# Procedure: Determination of the logP values:
# The lambda max values were determined in the maxima of the chromatographic signals using the UV spectra from 190 nm to 400 nm.
# [2] = 0.1% aqueous phosphoric acid/acetonitrile, method [a]: 0.1% aqueous phosphoric acid and acetonitrile at pH 2.3, linear gradient from 10 to 95 % (v/v) acetonitrile, HPLC reversed-phase C 18, 40 °C
# [3] = 0.001 m aqueous nh4hco3/acetonitrile, method [c]: 0.001 molar aqueous NH4HCO3 solution and acetonitrile at pH 7.8, linear gradient from 10 % to 95 % acetonitrile (v/v), HPLC reversed-phase C 18, 40 °C
# [4] = 0.001 m aqueous nh4hco3/acetonitrile, HPLC, reversed-phase C 18, 40 °C, [c] 0.001 molar aqueous NH4HCO3 solution and acetonitrile at pH 7.8, linear gradient from 10 % to 95 % acetonitrile (v/v)
# [5] = 0.1% aqueous phosphoric acid/acetonitrile, HPLC, reversed-phase C 18, 40 °C, [a] 0.1% aqueous phosphoric acid and acetonitrile at pH 2.3, linear gradient from 10 to 95 % (v/v) acetonitrile
SMILES,mortality at 100 ppm (Musca domestica),mortality at 100 ppm (Lucilia cuprina larvae),activity (laying of fertile eggs in %) (Boophilus microplus),"chromatographic logP [1, 2]","chromatographic logP [1, 3]","chromatographic logP [1, 4]","chromatographic logP [1, 5]","chromatographic logP ([1]; 0.1% aqueous formic acid/acetonitrile, HPLC, reversed-phase C 18, 40 °C, [b] 0.1% aqueous formic acid and acetonitrile at pH 2.7, linear gradient from 10 % to 95 % (v/v) acetonitrile)"
CCS(=O)(=O)C[C@H](C)NC(=O)c1c(I)cccc1C(=O)Nc1ccc(C(C(F)(F)F)C(F)(F)F)cc1C [Compound 23],≥ 80%,≥ 80%,–,–,–,–,–,–
CSC[C@H](C)NC(=O)c1c(I)cccc1C(=O)Nc1ccc(C(C(F)(F)F)C(F)(F)F)cc1C [Compound 24],≥ 80%,≥ 80%,≥ 80%,–,–,–,–,–
Cc1cc(C(C(F)(F)F)C(F)(F)F)ccc1NC(=O)c1cccc(I)c1C(=O)N[C@@H](C)CS(C)(=O)=O [Compound 48],≥ 80%,≥ 80%,≥ 80%,–,–,–,–,–
Cc1cc(C(C(F)(F)F)C(F)(F)F)ccc1NC(=O)c1cccc(I)c1C(=O)N[C@@H](C)C[S+](C)[O-] (stereo partly shown) [Compound 56],≥ 80%,≥ 80%,≥ 80%,–,–,–,–,–
CCSC[C@H](C)NC(=O)c1c(I)cccc1C(=O)Nc1ccc(C(F)(C(F)(F)F)C(F)(F)F)c(F)c1C [Compound 105],–,≥ 80%,≥ 80%,4.71,–,–,–,–
Cc1cc(C(F)(C(F)(F)F)C(F)(F)F)ccc1NC(=O)c1cccc(Br)c1C(=O)N[C@@H](C)CS(C)(=O)=O [Compound 129],–,≥ 80%,≥ 80%,–,–,–,–,–
CCS(=O)(=O)C[C@H](C)NC(=O)c1c(I)cccc1C(=O)Nc1ccc(C(F)(C(F)(F)F)C(F)(F)F)c(F)c1C [Compound 130],≥ 80%,≥ 80%,–,3.47,–,–,–,–
CCS(=O)(=O)C[C@H](C)NC(=O)c1c(Br)cccc1C(=O)Nc1ccc(C(F)(F)C(F)(F)F)c(Cl)c1C [Compound 138],–,≥ 80%,≥ 80%,3.19,–,–,–,–
CCS(=O)(=O)C[C@H](C)NC(=O)c1c(I)cccc1C(=O)Nc1ccc(C(F)(F)C(F)(F)F)c(Cl)c1C [Compound 145],–,≥ 80%,–,–,–,–,–,–
CSC[C@H](C)NC(=O)c1c(I)cccc1C(=O)Nc1ccc(C(F)(F)C(F)(F)F)c(F)c1C [Compound 146],–,≥ 80%,≥ 80%,4.04,–,–,–,–
CCSC[C@H](C)NC(=O)c1c(I)cccc1C(=O)Nc1ccc(C(F)(C(F)(F)F)C(F)(F)Br)cc1C (stereo partly shown) [Compound 154],–,≥ 80%,≥ 80%,4.68,4.71,–,–,–
Cc1c(NC(=O)c2cccc(I)c2C(=O)N[C@@H](C)CS(C)(=O)=O)ccc(C(F)(F)C(F)(F)F)c1F [Compound 162],≥ 80%,≥ 80%,–,2.97,–,–,–,–
CSC[C@H](C)NC(=O)c1c(I)cccc1C(=O)Nc1ccc(C(F)(F)C(F)(F)F)c(Cl)c1C [Compound 170],–,≥ 80%,≥ 80%,4.2,–,–,–,–
Cc1c(NC(=O)c2cccc(I)c2C(=O)N[C@@H](C)CS(C)(=O)=O)ccc(C(F)(C(F)(F)F)C(F)(F)F)c1F [Compound 178],≥ 80%,≥ 80%,–,3.27,–,–,–,–
Cc1c(NC(=O)c2cccc(I)c2C(=O)N[C@@H](C)CS(C)(=O)=O)ccc(C(F)(F)C(F)(F)F)c1Cl [Compound 186],–,≥ 80%,–,–,–,–,–,–
CCS(=O)(=O)C[C@H](C)NC(=O)c1c(I)cccc1C(=O)Nc1ccc(C(F)(C(F)(F)F)C(F)(F)Br)cc1C (stereo partly shown) [Compound 194],–,–,–,–,–,3.47,3.49,–
CCSC[C@H](C)NC(=O)c1c(I)cccc1C(=O)Nc1ccc(C(C(F)F)C(F)(F)F)cc1F (stereo partly shown) [Compound 219],≥ 80%,–,≥ 80%,–,–,3.57,3.57,–
C[C@@H](CS(C)(=O)=O)NC(=O)c1c(I)cccc1C(=O)Nc1ccc(C(C(F)F)C(F)(F)F)cc1Cl (stereo partly shown) [Compound 259],≥ 80%,≥ 80%,–,–,–,2.72,2.69,–
CSC[C@H](C)NC(=O)c1c(Br)cccc1C(=O)Nc1ccc(C(F)(C(F)F)C(F)(F)F)cc1Br (stereo partly shown) [Compound 267],–,≥ 80%,≥ 80%,–,–,–,3.81,–
C[C@@H](CS(C)(=O)=O)NC(=O)c1c(I)cccc1C(=O)Nc1ccc(C(C(F)F)C(F)(F)F)cc1Br (stereo partly shown) [Compound 275],≥ 80%,≥ 80%,–,–,–,2.76,2.71,–
C[C@@H](CS(C)(=O)=O)NC(=O)c1c(I)cccc1C(=O)Nc1ccc(C(F)(C(F)F)C(F)(F)F)cc1F (stereo partly shown) [Compound 283],≥ 80%,≥ 80%,–,–,–,2.76,2.72,–
CCS(=O)(=O)C[C@H](C)NC(=O)c1c(I)cccc1C(=O)Nc1ccc(C(F)(C(F)F)C(F)(F)F)cc1F (stereo partly shown) [Compound 307],≥ 80%,≥ 80%,–,–,–,2.94,2.89,–
Cc1c(NC(=O)c2cccc(I)c2C(=O)N[C@@H](C)C[S+](C)[O-])ccc(C(F)(C(F)(F)F)C(F)(F)F)c1F (stereo partly shown) [Compound 331],–,≥ 80%,≥ 80%,–,–,–,2.78,–
CC[S+]([O-])C[C@H](C)NC(=O)c1c(I)cccc1C(=O)Nc1ccc(C(F)(C(F)(F)F)C(F)(F)F)c(F)c1C (stereo partly shown) [Compound 339],–,≥ 80%,≥ 80%,–,–,–,2.97,–
CCS(=O)(=O)C[C@H](C)NC(=O)c1c(Cl)cccc1C(=O)Nc1ccc(C(F)(F)C(F)(F)F)c(Cl)c1C [Compound 347],–,≥ 80%,≥ 80%,–,–,–,3.14,–
CSC[C@H](C)NC(=O)c1c(Cl)cccc1C(=O)Nc1ccc(C(F)(F)C(F)(F)F)c(F)c1C [Compound 355],–,≥ 80%,≥ 80%,–,–,–,–,3.94
CCSC[C@H](C)NC(=O)c1c(Cl)cccc1C(=O)Nc1ccc(C(F)(F)C(F)(F)F)c(F)c1C [Compound 380],–,–,–,4.21,–,–,–,–
CSC[C@H](C)NC(=O)c1c(Br)cccc1C(=O)Nc1ccc(C(F)(F)C(F)(F)F)c(F)c1C [Compound 388],–,≥ 80%,≥ 80%,3.93,–,–,–,–
Cc1c(NC(=O)c2cccc(Br)c2C(=O)N[C@@H](C)CS(C)(=O)=O)ccc(C(F)(F)C(F)(F)F)c1F [Compound 389],–,≥ 80%,≥ 80%,2.86,–,–,–,–
Cc1cc(C(C(F)(F)F)C(F)(F)F)c(F)cc1NC(=O)c1cccc(Br)c1C(=O)N[C@@H](C)C[S+](C)[O-] (stereo partly shown) [Compound 422],–,≥ 80%,≥ 80%,2.58,2.51,–,–,–
